Experimental data taken from US20220241223A1, “USE OF DISULFIRAM OR ITS DERIVATIVES FOR THE TREATMENT OF MITOCHONDRIAL DISEASES OR DYSFUNCTION” (Universite D'angers, priority 2019, published 2022).
pIC50: −log10 of the molar value.

What was measured:
Δcoa6 cells = test: Growth in liquid non-fermentable medium with increasing DSF concentrations; format: cell-based; settings: Saccharomyces cerevisiae, 40 h, read-out: toxic dose (IC50)
Procedure: (§1) Exponentially growing cells were inoculated in fresh non-fermentable YPG or YPE media supplemented, or not, with increasing DSF concentrations.
(§2) More precisely, the shy1-G137R and Δcoa6 cells have been grown for 40 h in liquid medium containing 2% glycerol and 0.1% galactose as carbon source and increasing concentrations of DSF (100 nM to 6 μM). The A29G and fmc1Δ cells have been grown for 48 h in liquid medium containing 2% glycerol as carbon source and increasing concentrations of DSF (50 nM to 5 μM). The taz1Δ and sym1Δ cells have been grown for 48 h in rich liquid medium containing 2% ethanol/0.2% galactose and 2% glycerol/2% ethanol as a carbon source, respectively, and increasing concentrations of DSF (100 nM to 9 μM).

sym1Δ cells = test: as above; format: cell-based, Saccharomyces cerevisiae; settings: 48 h
Procedure: as §1, §2

shy1-G137R cells = test: as above; format: cell-based, Saccharomyces cerevisiae; settings: 40 h, 2% glycerol and 0.1% galactose
Procedure: as §1, §2

taz1Δ cells = test: as above; format: cell-based, Saccharomyces cerevisiae; settings: TAZ1 deletion, 48 h, 2% ethanol/0.2% galactose
Procedure: as §1, §2

fmc1Δ cells = test: as above; format: cell-based, Saccharomyces cerevisiae; settings: 48 h
Procedure: as §1, §2

A29G cells = test: as above; format: cell-based, Saccharomyces cerevisiae; settings: 48 h
Procedure: as §1, §2

[1] = system: neuronal MELAS cybrid cells; test: Lactate production in MELAS cybrid cells; format: cell-based, human; settings: FIG. 8, MELAS cybrids
Procedure: FIG. 8: Determination of the maximal DSF concentration nontoxic for lactate production in neuronal MELAS cybrid cells. Range of DSF concentrations from 100 nM to 10 μM.
Lactate concentrations in the culture media were determined by spectrophotometry on a Hitachi-Roche apparatus following the recommendations of the manufacturer (Roche Diagnosis, Bale, Switzerland). Increased lactate concentration in supernatant of cell culture is witnessing glycolytic adaptation at the expense of mitochondrial function with reduced oxidative mitochondrial metabolism correlated with high concentrations and drug toxicity of DSF.

[2] = system: mitochondrial complex I in MELAS neuronal cybrid cells; test: Complex I enzyme activity in MELAS cybrid cells; format: cell-based, human; settings: FIG. 5; various concentrations, especially from 30 to 90 nM; 48 h exposure; low glucose medium (0.5 g/l)
Procedure: FIG. 5: Effect of DSF compared to untreated mutant cells (DMSO vehicle) after 48 h exposure on complex I enzyme activity in MELAS neuronal cybrid cells in low glucose medium (0.5 g/l).
The SH-SY5Y neuronal mutant cybrid cells, carrying the m.3243A>G with 98.6% mutant load responsible for MELAS syndrome, were cultured in standard DMEM high glucose media (4.5 g/L) or in low glucose (0.5 g/L), supplemented with 10% fetal bovine serum, 1% glutamine and 50 μg/ml uridine at 37° C. in presence of 5% CO2 as described elsewhere (Desquiret-Dumas et al. & Geffroy et al.). To optimize drug concentrations, cells were shifted to low glucose-medium 0.5 g/l (to force the cells to rely on OXPHOS rather than glycolysis) supplemented with various concentrations of DSF or of the vehicle (DMSO).
Complex I enzyme activity was measured at 37° C. on an UVmc2 spectrophotometer (SAFAS) as described (Desquiret-Dumas et al., 2012). For complex I enzyme activity, 0.5 million of cells were sonicated (6 cycles of 5 seconds) then incubated at 37° C. in the reaction medium (KH2PO4 100 mM, pH 7.4, KCN 1 mM, NaN3 2 mM, BSA 1 mg/ml, ubiquinone-1 0.1 mM and DCPIP 0.075 mM). The reaction was started by adding 0.15 mM NADH and the disappearing rate of DCPIP was measured at 600 nm for 2 minutes. The unspecific activity was determined in the presence of rotenone (5 μM).

TNFα-induced cell death = settings: Zhao et al. 2000; cited from earlier work
[3] = Saccharomyces cerevisiae, read-out: toxic dose (IC50)
[4] = suppression of respiratory growth defect

SMILES: CCN(CC)C(=S)SSC(=S)N(CC)CC [DSF, 1-(diethylthiocarbamoyldisulfanyl)-N,N-diethyl-methanethioamide]
- pIC50 (Δcoa6 cells): 5.51
- optimal concentration (sym1Δ cells; SYM1 deletion, suppression of respiratory growth defect, 2% glycerol/2% ethanol): 1 µM
- pIC50 (sym1Δ cells; [3]): 5.05
- pIC50 (shy1-G137R cells; Saccharomyces cerevisiae, DSF 100 nM to 6 μM, read-out: toxic dose (IC50)): 5.72
- optimal concentration (shy1-G137R cells; [4]): 300 nM
- pIC50 (taz1Δ cells; Saccharomyces cerevisiae, DSF 100 nM to 9 μM, read-out: toxic dose (IC50)): 5.05
- optimal concentration (taz1Δ cells; [4]): 1 µM
- optimal concentration (fmc1Δ cells; FMC1 deletion, suppression of respiratory growth defect, 2% glycerol): 1 µM
- pIC50 (fmc1Δ cells; [3]): 5.22
- optimal concentration (A29G cells; A29G mutation, suppression of respiratory growth defect, 2% glycerol): 150 to 200 nM
- pIC50 (A29G cells; [3]): 6.40
- DSF concentration with impact on lactate production (drug toxicity) ([1]; also at 3 μM or 10 μM): ≥ 1 µM
- DSF concentration with no impact on lactate production ([1]; range 100 nM to 10 μM): lower than 1 μM
- effect on complex I activity [2]: increases complex I activity
- effect on TNFα-induced cell death (TNFα-induced cell death): inhibits TNFα-induced cell death
